What was measured:
Assay in all cases: Test B pre-/postemergence
Format in all cases: in vivo
Design in all cases: key: 0 is no effect; 10 is complete control
[1] = tested on: sugar beet (Beta vulgaris)
Procedure, shortened: (§1)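 Compounds in a surfactant-containing, non-phytotoxic solvent blend are applied to freshly planted seed (preemergence) and, concurrently, to seedlings of 2 to 18 cm at 1–4 leaves (postemergence). Plants stay in the greenhouse twelve to sixteen days and are then scored visually from 0 (no effect) to 10 (complete control).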

[2] = tested on: broadleaf signalgrass (Brachiaria decumbens)
Procedure, shortened: as §1

[3] = tested on: wheat (Triticum aestivum)
Procedure, shortened: as §1

corn (Zea mays) = tested on: corn (Zea mays)
Procedure, shortened: as §1

[4] = tested on: blackgrass (Alopecurus myosuroides)
Procedure, shortened: as §1

[5] = tested on: velvetleaf (Abutilon theophrasti)
Procedure, shortened: as §1

[6] = tested on: momingglory (Ipomoea hederacea)
Procedure, shortened: as §1

[7] = tested on: pigweed (Amaranthus retroflexus)
Procedure, shortened: as §1

wild oat (Avena fatua) = tested on: wild oat (Avena fatua)
Procedure, shortened: as §1

[8] = tested on: giant foxtail (Setaria faberii)
Procedure, shortened: as §1

[9] = tested on: purple nutsedge (Cyperus rotundus)
Procedure, shortened: as §1

[10] = tested on: cocklebur (Xanthium strumarium)
Procedure, shortened: as §1

[11] = tested on: bedstraw (Galium aparine)
Procedure, shortened: as §1

[12] = tested on: crabgrass (Digitaria sanguinalis)
Procedure, shortened: as §1

With `Cc1cnc(-c2ccc(C(F)(F)F)cc2)nc1Cn1ccc(C(F)(F)F)n1` [compound 9] the “Plant response rating, Sugarbeets” value ([1]; Rate 62 g/ha, Postemergence) was 10, the “Sugarbeets plant response rating” value ([1]; Rate 62 g/ha, Preemergence) was 9 and the “Plant response rating, Sugarbeets” value ([1]; Rate 125 g/ha, Postemergence) was 10. The “Sugarbeets plant response rating” value ([1]; Rate 125 g/ha, Preemergence) was 10, the “Plant response rating, Sugarbeets” value ([1]; Rate 250 g/ha, Postemergence) was 10 and the “Plant response rating, Sugarbeets” value ([1]; Rate 250 g/ha, Preemergence) was 10. The “Plant response rating, Sugarbeets” value ([1]; Rate 500 g/ha, Postemergence) was 9, the “Plant response rating, Sugarbeets” value ([1]; Rate 500 g/ha, Preemergence) was 10 and the “Plant response rating, B. signalgrass” value ([2]; Rate 62 g/ha, Postemergence) was 5. For the same compound, the “B. signalgrass plant response rating” value ([2]; Rate 62 g/ha, Preemergence) was 8, the “Plant response rating, B. signalgrass” value ([2]; Rate 125 g/ha, Postemergence) was 8 and the “B. signalgrass plant response rating” value ([2]; Rate 125 g/ha, Preemergence) was 9. The “Plant response rating, B. signalgrass” value ([2]; Rate 250 g/ha, Postemergence) was 9, the “Plant response rating, B. signalgrass” value ([2]; Rate 250 g/ha, Preemergence) was 10 and the “Plant response rating, B. signalgrass” value ([2]; Rate 500 g/ha, Postemergence) was 9. For the same compound, the “Plant response rating, B. signalgrass” value ([2]; Rate 500 g/ha, Preemergence) was 10, the “Plant response rating, Wheat” value ([3]; Rate 62 g/ha, Postemergence) was 3 and the “Wheat plant response rating” value ([3]; Rate 62 g/ha, Preemergence) was 1. The “Plant response rating, Wheat” value ([3]; Rate 125 g/ha, Postemergence) was 3, the “Wheat plant response rating” value ([3]; Rate 125 g/ha, Preemergence) was 2 and the “Plant response rating, Wheat” value ([3]; Rate 250 g/ha, Postemergence) was 4. For the same compound, the “Plant response rating, Wheat” value ([3]; Rate 250 g/ha, Preemergence) was 5, the “Plant response rating, Wheat” value ([3]; Rate 500 g/ha, Postemergence) was 6 and the “Plant response rating, Wheat” value ([3]; Rate 500 g/ha, Preemergence) was 6. For the same compound, the “Plant response rating, Corn” value (corn (Zea mays); Rate 62 g/ha, Postemergence) was 3, the “Corn plant response rating” value (corn (Zea mays); Rate 62 g/ha, Preemergence) was 0 and the “Plant response rating, Corn” value (corn (Zea mays); Rate 125 g/ha, Postemergence) was 4. For the same compound, the “Corn plant response rating” value (corn (Zea mays); Rate 125 g/ha, Preemergence) was 1, the “Plant response rating, Corn” value (corn (Zea mays); Rate 250 g/ha, Postemergence) was 5 and the “Plant response rating, Corn” value (corn (Zea mays); Rate 250 g/ha, Preemergence) was 3. The “Plant response rating, Corn” value (corn (Zea mays); Rate 500 g/ha, Postemergence) was 5, the “Plant response rating, Corn” value (corn (Zea mays); Rate 500 g/ha, Preemergence) was 4 and the “Plant response rating, Blackgrass” value ([4]; Rate 62 g/ha, Postemergence) was 3. The “Blackgrass plant response rating” value ([4]; Rate 62 g/ha, Preemergence) was 4, the “Plant response rating, Blackgrass” value ([4]; Rate 125 g/ha, Postemergence) was 8 and the “Blackgrass plant response rating” value ([4]; Rate 125 g/ha, Preemergence) was 9. For the same compound, the “Plant response rating, Blackgrass” value ([4]; Rate 250 g/ha, Postemergence) was 8, the “Plant response rating, Blackgrass” value ([4]; Rate 250 g/ha, Preemergence) was 10 and the “Plant response rating, Blackgrass” value ([4]; Rate 500 g/ha, Postemergence) was 9. For the same compound, the “Plant response rating, Blackgrass” value ([4]; Rate 500 g/ha, Preemergence) was 10, the “Plant response rating, Velvetleaf” value ([5]; Rate 62 g/ha, Postemergence) was 10 and the “Velvetleaf plant response rating” value ([5]; Rate 62 g/ha, Preemergence) was 7. The “Plant response rating, Velvetleaf” value ([5]; Rate 125 g/ha, Postemergence) was 10, the “Velvetleaf plant response rating” value ([5]; Rate 125 g/ha, Preemergence) was 8 and the “Plant response rating, Velvetleaf” value ([5]; Rate 250 g/ha, Postemergence) was 10. For the same compound, the “Plant response rating, Velvetleaf” value ([5]; Rate 250 g/ha, Preemergence) was 9, the “Plant response rating, Velvetleaf” value ([5]; Rate 500 g/ha, Postemergence) was 9 and the “Plant response rating, Velvetleaf” value ([5]; Rate 500 g/ha, Preemergence) was 9. The “Plant response rating, Morningglory” value ([6]; Rate 62 g/ha, Postemergence) was 10, the “Morningglory plant response rating” value ([6]; Rate 62 g/ha, Preemergence) was 8 and the “Plant response rating, Morningglory” value ([6]; Rate 125 g/ha, Postemergence) was 10. For the same compound, the “Morningglory plant response rating” value ([6]; Rate 125 g/ha, Preemergence) was 10, the “Plant response rating, Morningglory” value ([6]; Rate 250 g/ha, Postemergence) was 10 and the “Plant response rating, Morningglory” value ([6]; Rate 250 g/ha, Preemergence) was 10. For the same compound, the “Plant response rating, Morningglory” value ([6]; Rate 500 g/ha, Postemergence) was 10, the “Plant response rating, Morningglory” value ([6]; Rate 500 g/ha, Preemergence) was 10 and the “Plant response rating, Redroot pigweed” value ([7]; Rate 62 g/ha, Postemergence) was 10. The “Redroot pigweed plant response rating” value ([7]; Rate 62 g/ha, Preemergence) was 9, the “Plant response rating, Redroot pigweed” value ([7]; Rate 125 g/ha, Postemergence) was 10 and the “Redroot pigweed plant response rating” value ([7]; Rate 125 g/ha, Preemergence) was 10. The “Plant response rating, Redroot pigweed” value ([7]; Rate 250 g/ha, Postemergence) was 10, the “Plant response rating, Redroot pigweed” value ([7]; Rate 250 g/ha, Preemergence) was 10 and the “Plant response rating, Redroot pigweed” value ([7]; Rate 500 g/ha, Postemergence) was 10. The “Plant response rating, Redroot pigweed” value ([7]; Rate 500 g/ha, Preemergence) was 10, the “Plant response rating, Wild oats” value (wild oat (Avena fatua); Rate 62 g/ha, Postemergence) was 3 and the “Wild oats plant response rating” value (wild oat (Avena fatua); Rate 62 g/ha, Preemergence) was 5. For the same compound, the “Plant response rating, Wild oats” value (wild oat (Avena fatua); Rate 125 g/ha, Postemergence) was 4, the “Wild oats plant response rating” value (wild oat (Avena fatua); Rate 125 g/ha, Preemergence) was 8 and the “Plant response rating, Wild oats” value (wild oat (Avena fatua); Rate 250 g/ha, Postemergence) was 6. The “Plant response rating, Wild oats” value (wild oat (Avena fatua); Rate 250 g/ha, Preemergence) was 9, the “Plant response rating, Wild oats” value (wild oat (Avena fatua); Rate 500 g/ha, Postemergence) was 8 and the “Plant response rating, Wild oats” value (wild oat (Avena fatua); Rate 500 g/ha, Preemergence) was 9. The “Plant response rating, Giant foxtail” value ([8]; Rate 62 g/ha, Postemergence) was 4, the “Giant foxtail plant response rating” value ([8]; Rate 62 g/ha, Preemergence) was 10 and the “Plant response rating, Giant foxtail” value ([8]; Rate 125 g/ha, Postemergence) was 5. The “Giant foxtail plant response rating” value ([8]; Rate 125 g/ha, Preemergence) was 10, the “Plant response rating, Giant foxtail” value ([8]; Rate 250 g/ha, Postemergence) was 9 and the “Plant response rating, Giant foxtail” value ([8]; Rate 250 g/ha, Preemergence) was 10. For the same compound, the “Plant response rating, Giant foxtail” value ([8]; Rate 500 g/ha, Postemergence) was 9, the “Plant response rating, Giant foxtail” value ([8]; Rate 500 g/ha, Preemergence) was 10 and the “Plant response rating, Nutsedge” value ([9]; Rate 62 g/ha, Postemergence) was 0. For the same compound, the “Nutsedge plant response rating” value ([9]; Rate 62 g/ha, Preemergence) was 0, the “Plant response rating, Nutsedge” value ([9]; Rate 125 g/ha, Postemergence) was 1 and the “Nutsedge plant response rating” value ([9]; Rate 125 g/ha, Preemergence) was 0. The “Plant response rating, Nutsedge” value ([9]; Rate 250 g/ha, Postemergence) was 3, the “Plant response rating, Nutsedge” value ([9]; Rate 250 g/ha, Preemergence) was 0 and the “Plant response rating, Nutsedge” value ([9]; Rate 500 g/ha, Postemergence) was 3. The “Plant response rating, Nutsedge” value ([9]; Rate 500 g/ha, Preemergence) was 0, the “Plant response rating, Cocklebur” value ([10]; Rate 62 g/ha, Postemergence) was 9 and the “Cocklebur plant response rating” value ([10]; Rate 62 g/ha, Preemergence) was 0. The “Plant response rating, Cocklebur” value ([10]; Rate 125 g/ha, Postemergence) was 9, the “Cocklebur plant response rating” value ([10]; Rate 125 g/ha, Preemergence) was 2 and the “Plant response rating, Cocklebur” value ([10]; Rate 250 g/ha, Postemergence) was 10. The “Plant response rating, Cocklebur” value ([10]; Rate 250 g/ha, Preemergence) was 9, the “Plant response rating, Cocklebur” value ([10]; Rate 500 g/ha, Postemergence) was 9 and the “Plant response rating, Cocklebur” value ([10]; Rate 500 g/ha, Preemergence) was 9. The “Plant response rating, Bedstraw” value ([11]; Rate 62 g/ha, Postemergence) was 10, the “Bedstraw plant response rating” value ([11]; Rate 62 g/ha, Preemergence) was 4 and the “Plant response rating, Bedstraw” value ([11]; Rate 125 g/ha, Postemergence) was 10. The “Bedstraw plant response rating” value ([11]; Rate 125 g/ha, Preemergence) was 7, the “Plant response rating, Bedstraw” value ([11]; Rate 250 g/ha, Postemergence) was 10 and the “Plant response rating, Bedstraw” value ([11]; Rate 250 g/ha, Preemergence) was 10. The “Plant response rating, Bedstraw” value ([11]; Rate 500 g/ha, Postemergence) was 10, the “Plant response rating, Bedstraw” value ([11]; Rate 500 g/ha, Preemergence) was 9 and the “Plant response rating, Crabgrass” value ([12]; Rate 62 g/ha, Postemergence) was 9. For the same compound, the “Crabgrass plant response rating” value ([12]; Rate 62 g/ha, Preemergence) was 9, the “Plant response rating, Crabgrass” value ([12]; Rate 125 g/ha, Postemergence) was 9 and the “Crabgrass plant response rating” value ([12]; Rate 125 g/ha, Preemergence) was 10. The “Plant response rating, Crabgrass” value ([12]; Rate 250 g/ha, Postemergence) was 10, the “Plant response rating, Crabgrass” value ([12]; Rate 250 g/ha, Preemergence) was 10 and the “Plant response rating, Crabgrass” value ([12]; Rate 500 g/ha, Postemergence) was 10. The “Plant response rating, Crabgrass” value ([12]; Rate 500 g/ha, Preemergence) was 10.

From US6525001B1, “Substituted pyrimidine and pyridine herbicides” (Mid-American Commercialization Corporation, priority 1997, dated 2003)
